Reference: patent US6503919B1, “Compounds of 7-oxo-2,3,7,14-tetrahydro-1H-benzo[b]pyrano[3,2-h]acridin carboxylate” (Les Laboratoires Server, priority 1999, dated 2003)

What was measured:
P 388 (murine leukaemia) = assay: Anti-tumour activity on the leukaemia P 388; assay type: in vivo; conditions: B6D2F1 mice, intraperitoneal route on day 1
Description: The line P 388 (murine leukaemia) was supplied by the National Cancer Institute (Frederick, USA). The tumour cells (10^6 cells) were inoculated on day 0 into the peritoneal cavity of female B6D2F1 mice (Iffa Credo, France). Six mice weighing from 18 to 20 g were used per experimental group. The compounds were administered by the intraperitoneal route on day 1.
The anti-tumour activity is expressed as % of T/C: [formula]

[1] = test system: murine leukaemia L1210 and human colon carcinoma HT-29; assay: In vitro cytotoxicity, Microculture Tetrazolium Assay; assay type: cell-based; conditions: 4 doubling periods: 48 hours (L1210) or 96 hours (HT-29); cell line not stated; read-out: IC50 (cytotoxic concentration that inhibits the proliferation of the treated cells by 50%)
Description: The murine leukaemia L1210 and the human colon carcinoma HT-29 were used in vitro. The cells are cultured in complete RPMI 1640 culture medium containing 10% foetal calf serum, 2 mM glutamine, 50 U/ml of penicillin, 50 μg/ml of streptomycin and 10 mM Hepes, pH: 7.4. The cells are distributed in microplates and exposed to the cytotoxic compounds for 4 doubling periods, that is to say 48 hours (L1210) or 96 hours (HT-29). The number of viable cells is then quantified by a colorimetric assay, the Microculture Tetrazolium Assay (J. Carmichael et al., Cancer Res., 47, 936-942, (1987)). The results are expressed as IC50 values, which is the cytotoxic concentration that inhibits the proliferation of the treated cells by 50%.

Row | Structure (SMILES) | melting point [°C] | anti-tumour activity in the P 388 model (in words) (P 388 (murine leukaemia)) | IC50 [1] [nM]
1 | COc1cc2c(c3c1c(=O)c1cc4ccccc4cc1n3C)[C@@H](OC(=O)CCCC(=O)O)[C@@H](OC(=O)CCCC(=O)O)C(C)(C)O2 (relative stereo) [Example 22, cis-5-({1-[(4-Carboxybutanoyl)oxy]6-methoxy-3,3,14-trimethyl-7-oxo-2,3,7,14-tetrahydro-1H-benzo[b]pyrano[3,2-h]acridin-2-yl}oxy)-5-oxopentanoic acid] | 118 | – | –
2 | COc1cc2c(c3c1c(=O)c1cc4ccccc4cc1n3C)[C@@H](OC(C)=O)[C@@H](OC(=O)CCCC(=O)O)C(C)(C)O2 (racemic) [Example 3, (±)-cis-5-{[1-(Acetyloxy)-6-methoxy-3,3,14-trimethyl-7-oxo-2,3,7,14-tetrahydro-1H-benzo[b]pyrano[3,2-h]acridin-2-yl]oxy}-5-oxopentanoic acid] | 155 | – | –
3 | COc1cc2c(c3c1c(=O)c1ccccc1n3C)C=CC(C)(C)O2 [acronycine] | – | only marginally active | –
4 | COc1cc2c(c3c1c(=O)c1cc4ccccc4cc1n3C)[C@@H](OC(=O)CCC(=O)O)[C@@H](OC(=O)CCC(=O)O)C(C)(C)O2 (racemic) [Example 7, (±)-cis-4-({1-[(3-Carboxypropanoyl)oxy]-6-methoxy-3,3,14-trimethyl-7-oxo-2,3,7,14-tetrahydro-1H-benzo[b]pyrano[3,2-h]acridin-2-yl}oxy)-4-oxobutanoic acid] | 128 | – | 2300
5 | COc1cc2c(c3c1c(=O)c1cc4ccccc4cc1n3C)[C@@H](OC(C)=O)[C@@H](OC(=O)CCC(=O)O)C(C)(C)O2 (racemic) [Example 1, (±)-cis-4-{[1-(Acetyloxy)-6-methoxy-3,3,14-trimethyl-7-oxo-2,3,7,14-tetrahydro-1H-benzo[b]pyrano[3,2-h]acridin-2-yl]oxy}-4-oxobutanoic acid] | 154 | – | 2000
